Measured values taken from US10053453B2, “Compounds and their use as BACE inhibitors” (AstraZeneca AB, priority 2014, dated 2018).
Where two headings read alike, the source gives them in different places.

Columns and labels:
[1] = test system: SH-SY5Y cells; test: sAPPβ release assay; conditions: Homo sapiens, SH-SY5Y
Protocol: Cells were thawed and seeded at a concentration of around 10000 cells/well in DMEM/F-12 with Glutamax, 10% FCS and 1% non-essential amino acids to a 384-well tissue culture treated plate, 30 μL cell susp/well. The cell plates were then incubated for 7-24 h at 37° C., 5% CO2.
The cell medium was removed, followed by addition of 50 μL compound diluted in DMEM/F-12 with Glutamax, 10% FCS, 1% non-essential amino acids to a final cone of 0.5% DMSO. The compounds were incubated with the cells for 16-17 h (overnight) at 37° C., 5% CO2.
Meso Scale Discovery (MSD) plates were used for the detection of sAPP release. MSD sAPPβ plates were blocked in 1% BSA in Tris wash buffer for 1 h on shake at r.t. and washed 1 time in Tris wash buffer. […] The MSD plates were incubated with shaking at r.t. for 2 h and the media discarded. 10 μL detection antibody was added (1 nM) per well followed by incubation with shaking at r.t. for 2 h and then discarded. 35 μL Read Buffer was added per well and the plates were read in a Meso Scale Discovery SECTOR6000 Imager.

[2] = target: T1, Human BACE2 (Homo sapiens, UniProt Q9Y5Z0); test: TR-FRET assay; assay type: biochemical; conditions: enzyme 2.7 μg/mL, substrate 100 nM, pH4.5
T1 construct: the soluble part of the human β-Secretase2 (AA1-AA473) was cloned using BACE2(1-473)-(AVT)-Fc-pDEST12.2 mammalian expression vector; AVT linker (C); made in house
T1 sequence (Q9Y5Z0 21-473): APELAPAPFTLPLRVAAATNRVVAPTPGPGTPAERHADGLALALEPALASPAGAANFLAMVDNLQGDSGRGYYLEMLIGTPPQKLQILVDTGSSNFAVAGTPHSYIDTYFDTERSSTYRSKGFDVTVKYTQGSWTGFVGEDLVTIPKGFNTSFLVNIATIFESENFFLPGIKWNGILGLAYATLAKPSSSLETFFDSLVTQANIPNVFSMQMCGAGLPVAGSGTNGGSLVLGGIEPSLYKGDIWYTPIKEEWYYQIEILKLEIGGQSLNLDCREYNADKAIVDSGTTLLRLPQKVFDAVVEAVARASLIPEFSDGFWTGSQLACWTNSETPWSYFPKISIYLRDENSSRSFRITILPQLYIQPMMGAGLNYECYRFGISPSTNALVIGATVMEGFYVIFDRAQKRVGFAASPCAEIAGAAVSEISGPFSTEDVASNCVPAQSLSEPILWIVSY
Protocol: (§1) The β-secretase enzyme used in the TR-FRET was prepared as follows:
(§2) Human BACE1: the cDNA for the soluble part of the human β-Secretase1 (AA1-AA460) was cloned using the BACE1(1-460)-(AVT)-Fc-pGEN-IRES-neo mammalian expression vector. The gene was fused to the Fe domain of IgG1 (affinity tag) and stably cloned into HEK 293 cells. […]
(§3) A multidrop Combi was used for the liquid handling. Enzyme (7 μL) was added to the compound plate (containing 0.8 μL of compound in dimethylsulphoxide). The plate was incubated for 10 minutes. Substrate (8 μL) was then added, and the reaction proceeded for 17 minutes at r.t. The reaction was stopped with the addition of Stop solution (5.5 μL, NaOAC, pH 9). Fluorescence was measured on a Pherastar plate reader using HTRF module. […] 5 reference inhibitors with different affinities were used at all screen occasions in dose response.

[3] = target: T2, Human BACE1 (Homo sapiens, UniProt P56817); test: Diluted TR-FRET assay; assay type: biochemical; conditions: 50 times less enzyme, 6.5 h reaction time at r.t.; read-out: IC50 BACE1 (dil. TR-FRET)
T2 construct: the soluble part of the human β-Secretase1 (AA1-AA460) was cloned using the BACE1(1-460)-(AVT)-Fc-pGEN-IRES-neo mammalian expression vector; AVT linker (C); made in house
T2 sequence (P56817 22-460): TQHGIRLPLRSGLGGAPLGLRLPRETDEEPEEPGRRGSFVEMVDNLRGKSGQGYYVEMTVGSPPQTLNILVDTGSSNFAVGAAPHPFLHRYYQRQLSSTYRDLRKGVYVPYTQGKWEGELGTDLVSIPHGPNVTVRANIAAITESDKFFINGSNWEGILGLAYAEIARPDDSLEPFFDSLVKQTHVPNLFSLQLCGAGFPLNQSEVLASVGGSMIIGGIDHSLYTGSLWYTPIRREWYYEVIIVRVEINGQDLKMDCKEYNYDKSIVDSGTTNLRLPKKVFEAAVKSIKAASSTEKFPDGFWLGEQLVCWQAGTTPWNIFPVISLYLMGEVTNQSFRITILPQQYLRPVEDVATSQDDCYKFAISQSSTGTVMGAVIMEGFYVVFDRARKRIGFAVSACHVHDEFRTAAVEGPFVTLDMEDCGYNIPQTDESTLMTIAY
Protocol: as §1, §2
as §3, with “Substrate (8 μL) was then added, and the reaction proceeded for 17 minutes at r.t.” left out

[4] = read-out: IC50 Cell (sAPPβ release, nM), SH-SY5Y cells, compounds incubated 16-17 h

Row | Compound | IC50 [1, 4] | IC50 [2] | IC50 [3] | IC50 ([1]; read-out: IC50 Cell (sAPPβ release, nM))
1 | CO[C@H]1CC[C@]2(CC1)Cc1ccc(-c3ccnnc3)cc1C21COC(N)=N1 (stereo partly drawn) [Compound 62, (1r,4r)-4-methoxy-6′-(pyridazin-4-yl)-3′H,5″H-dispiro[cyclohexane-1,2′-indene-1′,4″-oxazol]-2″-amine] | 250 nM | > 5000 nM | > 5000 nM | 
2 | NC1=NC2(CO1)c1cc(-c3cncnc3)ccc1CC2N1CCOCC1 (stereo not drawn) [Compound 98, 2-morpholino-6-(pyrimidin-5-yl)-2,3-dihydro-5′H-spiro[indene-1,4′-oxazol]-2′-amine] |  | > 1580 nM | > 5000 nM | 1840 nM
3 | COCCCC1Cc2ccc(-c3cc(C#N)cc(OC)c3)cc2C12COC(N)=N2 (stereo not drawn) [Compound 90, 3-(2′-amino-2-(3-methoxypropyl)-2,3-dihydro-5′H-spiro[indene-1,4′-oxazol]-6-yl)-5-methoxybenzonitrile] | 715 nM | > 5000 nM | > 5000 nM | 
4 | [2H]C1([2H])OC(N)=NC12c1cc(-c3cc(C#N)cc(OC)c3)ccc1C[C@]21CC[C@@H](O)[C@H](C)C1 (stereo partly drawn) [Compound 58, 3-((1R,3R,4R)-2″-amino-4-hydroxy-3-methyl-3′H,5″H-dispiro[cyclohexane-1,2′-indene-1′,4″-oxazol]-6′-yl-5″,5″-d2)-5-methoxybenzonitrile] | 102 nM | 139 nM | 301 nM | 
5 | [2H]C1([2H])OC(N)=NC12c1cc(-c3ccnc(O)c3)ccc1C[C@@]21CC[C@H](OC)[C@@H](C)C1 (stereo partly drawn) [Compound 111] | 89 nM | > 5000 nM | 2160 nM | 
6 | COc1cc(C#N)cc(-c2ccc3c(c2)C2(COC(N)=N2)C(N2CCOCC2)C3)c1 (stereo not drawn) [Compound 100, 3-(2′-amino-2-morpholino-2,3-dihydro-5′H-spiro[indene-1,4′-oxazol]-6-yl)-5-methoxybenzonitrile] | 2160 nM | 1370 nM | > 5000 nM | 
7 | [2H]C1([2H])OC(N)=N[C@]12c1cc(-c3cncnc3C)ccc1C[C@@]21CC[C@H](OC)[C@@H](C)C1 [Compound 70, (1S,1′R,3S,4S)-4-methoxy-3-methyl-6′-(4-methylpyrimidin-5-yl)-3′H,5″H-dispiro[cyclohexane-1,2′-indene-1′,4″-oxazol]-5″,5″-d2-2″-amine] | 26.6 nM | > 5000 nM | 1130 nM | 
8 | [2H]C1([2H])OC(N)=NC12c1cc(/C=N/OC3CCC3)ccc1C[C@]21CC[C@@H](OC)CC1 (stereo partly drawn) [Compound 61, (E)-2″-amino-4-methoxy-3′H,5″H-dispiro[cyclohexane-1,2′-indene-1′,4″-oxazole]-5″,5″-d2-6′-carbaldehyde O-cyclobutyl oxime] | 207 nM | 3440 nM | 1960 nM | 
9 | [2H]C1([2H])OC(N)=NC12c1cc(-c3cc(C#N)cc(OC)c3)ccc1C[C@@]21CC[C@H](O)[C@@H](C)C1 (stereo partly drawn) [Compound 49, 3-((1S,3S,4S)-2″-amino-4-hydroxy-3-methyl-3′H,5″H-dispiro[cyclohexane-1,2′-indene-1′,4″-oxazol]-6′-yl-5″,5″-d2)-5-methoxybenzonitrile] | 15.8 nM | 69 nM | 166 nM | 
10 | [2H]C1([2H])OC(N)=NC12c1cc(-c3cncnc3)ccc1C[C@@]21CC[C@H](O)[C@@H](C)C1 (stereo partly drawn) [Compound 63, (1S,3S,4S)-2″-amino-3-methyl-6′-(pyrimidin-5-yl)-3′H,5″H-dispiro[cyclohexane-1,2′-indene-1′,4″-oxazol]-5″,5″-d2-4-ol] | 266 nM | > 5000 nM | 1460 nM | 
11 | [2H]C1([2H])OC(N)=NC12c1cc(OCCC(F)(F)F)ccc1C[C@]21CC[C@@H](OC)CC1 (stereo partly drawn) [Compound 45, (1r,4r)-4-methoxy-6′-(3,3,3-trifluoropropoxy)-3′H,5″H-dispiro[cyclohexane-1,2′-indene-1′,4″-oxazol]-5″,5″-d2-2″-amine] | 7.8 nM | 589 nM | 289 nM | 

More lines, main results first:

Row | IC50 [1, 4] | IC50 [2] | IC50 [3] | Compound | IC50 ([1]; read-out: IC50 Cell (sAPPβ release, nM))
12 | 0.9 nM | 519 nM | 266 nM | [2H]C1([2H])OC(N)=N[C@]12c1cc(C#CC(C)C)ccc1C[C@@]21CC[C@H](O)[C@@H](C)C1 (racemic) [Compound 11, (1S,3S,4S)-2″-amino-3-methyl-6′-(3-methylbut-1-yn-1-yl)-3′H,5″H-dispiro[cyclohexane-1,2′-indene-1′,4″-oxazol]-5″,5″-d2-4-ol and (1R,3R,4R)-2″-amino-3-methyl-6′-(3-methylbut-1-yn-1-yl)-3′H,5″H-dispiro[cyclohexane-1,2′-indene-1′,4″-oxazol]-5″,5″-d2-4-ol] | 
13 | 2.8 nM | 26.2 nM | 7.3 nM | [2H]C1([2H])OC(N)=NC12c1cc(-c3cc(C#N)cc(OC)c3)ccc1C[C@@]21C[C@@H](C)[C@H](OC)[C@@H](C)C1 (stereo partly drawn) [Compound 32, 3-((1r,3R,4r,5S)-2″-amino-4-methoxy-3,5-dimethyl-3′H,5″H-dispiro[cyclohexane-1,2′-indene-1′,4″-oxazol]-6′-yl-5″,5″-d2)-5-methoxybenzonitrile] | 
14 | 2.1 nM | 30.2 nM | 46.7 nM | [2H]C1([2H])OC(N)=N[C@]12c1cc(-c3cc(F)cc(C#N)c3)ccc1C[C@]21CC[C@@H](OC)[C@H](C)C1 [Compound 17, 3-((1R,1′R,3R,4R)-2″-amino-4-methoxy-3-methyl-3′H,5″H-dispiro[cyclohexane-1,2′-indene-1′,4″-oxazol]-6′-yl-5″,5″-d2)-5-fluorobenzonitrile] | 
15 | 2.8 nM | 24.7 nM | 12 nM | [2H]C1([2H])OC(N)=N[C@]12c1cc(-c3cccc(Cl)c3)ccc1C[C@@]21CC[C@H](OC)[C@@H](C)C1 [Compound 27] | 
16 | 0.2 nM | 64 nM | 17 nM | [2H]C1([2H])OC(N)=N[C@]12c1cc(-c3cncc(C#N)c3)ccc1C[C@@]21CC[C@H](OC)[C@@H](C)C1 [Compound 113, {(1S,1′R,3S,4S)-4-methoxy-3-methyl-6′-(5-cyanopyridin-3-yl)-3′H,5″H-dispiro[cyclohexane-1,2′-indene-1′,4″-oxazol]-5″,5″-d2-2″-amine}] | 
17 | 0.7 nM | 1010 nM | 77 nM | [2H]C([2H])([2H])O[C@H]1CC[C@@]2(Cc3ccc(-c4cnccc4F)cc3[C@]23N=C(N)OC3([2H])[2H])C[C@@H]1C [Compound 104, {(1S,1′R,3S,4S)-6′-(4-fluoropyridin-3-yl)-4-(methoxy-d3)-3-methyl-3′H,5″H-dispiro[cyclohexane-1,2′-indene-1′,4″-oxazol]-5″,5″-d2-2″-amine}] | 
18 | 2.6 nM | 79.2 nM | 55.7 nM | [2H]C1([2H])OC(N)=N[C@]12c1cc(-c3cncc(C(F)(F)F)c3)ccc1C[C@]21CC[C@@H](OC)[C@H](C)C1 [Compound 29, (1R,1′R,3R,4R)-4-methoxy-3-methyl-6′-(5-(trifluoromethyl)pyridin-3-yl)-3′H,5″H-dispiro[cyclohexane-1,2′-indene-1′,4″-oxazol]-5″,5″-d2-2″-amine] | 
19 | 2.4 nM | 90.8 nM | 24.3 nM | CO[C@H]1[C@H](C)C[C@@]2(Cc3ccc(-c4cncc(C#N)c4)cc3[C@@]23COC(N)=N3)C[C@@H]1C [Compound 31, 5-((1r,3R,4r,5S)-2″-amino-4-methoxy-3,5-dimethyl-3′H,5″H-dispiro[cyclohexane-1,2′-indene-1′,4″-oxazol]-6′-yl)nicotinonitrile] | 
20 | 0.27 nM | 17 nM | 6.2 nM | [2H]C1([2H])OC(N)=N[C@]12c1cc(-c3cncc(C#CC)c3)ccc1C[C@]21CC[C@@H](OC)[C@H](C)C1 [Compound 2, (1R,1′R,3R,4R)-4-methoxy-3-methyl-6′-(5-(prop-1-yn-1-yl)pyridin-3-yl)-3′H,5″H-dispiro[cyclohexane-1,2′-indene-1′,4″-oxazol]-5″,5″-d2-2″-amine] | 
